In patent US6706663B2, “Herbicidal 3-heterocyclic substituted benzisothiazole and benzisoxazole compounds” (Wyeth, priority 2000, dated 2004):

What was measured:
[1] = test system: IPOHE (Ipomoea hederacea); test: Postemergence herbicidal evaluation; format: in vivo, (L.) Jacq.; details: postemergence
Method in brief: (§1)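 Seedlings grown for about two weeks were sprayed postemergence and then kept under standard greenhouse care. Injury was rated visually 4–5 weeks after treatment on a 0–9 scale against untreated controls, and ratings from repeat tests were averaged.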

[2] = test system: ECHCG (Echinochloa crus-galli); test: Postemergence herbicidal evaluation; format: in vivo, (L.) Beau; details: postemergence
Method in brief: as §1

SETVI (Setaria viridis) [3] = test: Postemergence herbicidal evaluation; format: in vivo, (L.) Beau; details: postemergence
Method in brief: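 Visual injury score (0-9: stand, vigor, malformation, size, chlorosis, overall appearance vs untreated control) taken four to five weeks post-spray. Two-week-old seedlings received about 0.0040 to 1.000 kg/ha active compound in acetone/water with 0.5% TWEEN 20.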

[4] = test system: GLXMAW (Soybean, Williams); test: Postemergence herbicidal evaluation; format: in vivo, Glycine max, (L.) Merr. cv Williams; details: postemergence
Method in brief: as §1

ORYSAT (Rice, Tebonnet) [5] = test: Postemergence herbicidal evaluation; format: in vivo, Oryza sativa, (L.) Tebonnet; details: postemergence
Method in brief: as §1

[6] = test system: TRZAWR (Wheat, Winter, cv Riband); test: Postemergence herbicidal evaluation; format: in vivo, Triticum aestivum; details: postemergence
Method in brief: as §1

ZEAMX (Corn, Field) = test: Postemergence herbicidal evaluation; format: in vivo, Zea mays, L.; details: postemergence
Method in brief: as §1

[7] = test system: ABUTH (Abutilon theophrasti); test: Preemergence herbicidal evaluation; format: in vivo, Medic.; details: rated 4-5 weeks after treatment
[8] = test system: AMBEL (Ambrosia artemisifolia); test: Preemergence herbicidal evaluation; format: in vivo, L.; details: rated 4-5 weeks after treatment
Method in brief: (§2)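 Test compound is applied in aqueous acetone to cups just after seeding. Cups are watered and maintained on greenhouse benches. Each cup is scored 0–9 by eye relative to a control after four to five weeks.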

[9] = test system: CASOB (Cassia obtusifolia); test: Preemergence herbicidal evaluation; format: in vivo, L.; details: rated 4-5 weeks after treatment
Method in brief: as §2

[10] = test system: CHEAL (Chenopodium album); test: Preemergence herbicidal evaluation; format: in vivo, L.; details: rated 4-5 weeks after treatment
Method in brief: as §2

GALAP (Galium aparine) = test: Preemergence herbicidal evaluation; format: in vivo; details: rated 4-5 weeks after treatment
Method in brief: as §2

[11] = test system: ECHCG (Echinochloa crus-galli); test: Preemergence herbicidal evaluation; format: in vivo, (L.) Beau; details: rated 4-5 weeks after treatment
Method in brief: as §2

SETVI (Setaria viridis) [12] = test: Preemergence herbicidal evaluation; format: in vivo, (L.) Beau; details: rated 4-5 weeks after treatment
Method in brief: as §2

ORYSAT (Rice, Tebonnet) [13] = test: Preemergence herbicidal evaluation; format: in vivo, Oryza sativa, (L.) Tebonnet; details: rated 4-5 weeks after treatment
[14] = test system: TRZAWR (Wheat, Winter, cv Riband); test: Preemergence herbicidal evaluation; format: in vivo, Triticum aestivum; details: rated 4-5 weeks after treatment
Method in brief: as §2

[15] = test system: ECHORC (Echinochloa oryzoides); test: Flooded paddy, preemergence weed control; format: in vivo, Echinochloa oryzoides (Ard.) Fritsch.; details: rated 3-4 weeks after treatment, 0-9 rating scale
Method in brief: (§3)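 Seeds or propagating organs were sown in the top 0.5 cm of silt loam soil, flooded, and the water kept 1.5 to 3 cm above the soil surface throughout. Plants were grown in the greenhouse and rated visually on a 0-9 scale against a control.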

[16] = test system: MOOVA (Monochoria vaginalis); test: Flooded paddy, preemergence weed control; format: in vivo, Presl.; details: rated 3-4 weeks after treatment, 0-9 rating scale
Method in brief: as §3

CC1=CC(C)(C)OC(c2nsc3ccc(-n4c(=O)cc(C(F)(F)F)n(C)c4=O)cc23)C1 (centres unmarked) [Compound 65, 3-[3-(3,6-dihydro-4,6,6-trimethyl-2H-pyran-2-yl)-1,2-benzisothiazol-5-yl]-1-methyl-6-(trifluoromethyl)uracil]
IPOHE herbicidal rating ([1]; rate 0.0320 kg/ha): 9.0
IPOHE herbicidal rating ([1]; rate 0.0620 kg/ha): 9.0
ECHCG herbicidal rating ([2]; rate 0.0320 kg/ha): 4.0
ECHCG herbicidal rating ([2]; rate 0.0620 kg/ha): 5.0
SETVI herbicidal rating (SETVI (Setaria viridis) [3]; rate 0.0320 kg/ha): 3.0
SETVI herbicidal rating (SETVI (Setaria viridis) [3]; rate 0.0620 kg/ha): 7.0
GLXMAW herbicidal rating ([4]; rate 0.0320 kg/ha): 5.5
GLXMAW herbicidal rating ([4]; rate 0.0620 kg/ha): 7.0
ORYSAT herbicidal rating (ORYSAT (Rice, Tebonnet) [5]; rate 0.0320 kg/ha): 4.0
ORYSAT herbicidal rating (ORYSAT (Rice, Tebonnet) [5]; rate 0.0620 kg/ha): 4.5
TRZAWR herbicidal rating ([6]; rate 0.0320 kg/ha): 4.0
TRZAWR herbicidal rating ([6]; rate 0.0620 kg/ha): 5.0
ZEAMX herbicidal rating (ZEAMX (Corn, Field); rate 0.0320 kg/ha): 5.0
ZEAMX herbicidal rating (ZEAMX (Corn, Field); rate 0.0620 kg/ha): 5.5
Preemergence herbicidal rating ABUTH ([7]; Rate 0.0620 kg/ha): 9.0
Preemergence herbicidal rating ABUTH ([7]; Rate 0.1250 kg/ha): 9.0
Preemergence herbicidal rating ABUTH ([7]; Rate 0.2500 kg/ha): 9.0
Preemergence herbicidal rating AMBEL ([8]; Rate 0.0620 kg/ha): 8.0
Preemergence herbicidal rating AMBEL ([8]; Rate 0.1250 kg/ha): 9.0
Preemergence herbicidal rating AMBEL ([8]; Rate 0.2500 kg/ha): 9.0
Preemergence herbicidal rating CASOB ([9]; Rate 0.0620 kg/ha): 0.0
Preemergence herbicidal rating CASOB ([9]; Rate 0.1250 kg/ha): 0.0
Preemergence herbicidal rating CASOB ([9]; Rate 0.2500 kg/ha): 0.0
Preemergence herbicidal rating CHEAL ([10]; Rate 0.0620 kg/ha): 9.0
Preemergence herbicidal rating CHEAL ([10]; Rate 0.1250 kg/ha): 9.0
Preemergence herbicidal rating CHEAL ([10]; Rate 0.2500 kg/ha): 9.0
Preemergence herbicidal rating GALAP (GALAP (Galium aparine); Rate 0.0620 kg/ha): 5.0
Preemergence herbicidal rating GALAP (GALAP (Galium aparine); Rate 0.1250 kg/ha): 7.0
Preemergence herbicidal rating GALAP (GALAP (Galium aparine); Rate 0.2500 kg/ha): 7.0
Preemergence herbicidal rating ECHCG ([11]; Rate 0.0620 kg/ha): 9.0
Preemergence herbicidal rating ECHCG ([11]; Rate 0.1250 kg/ha): 9.0
Preemergence herbicidal rating ECHCG ([11]; Rate 0.2500 kg/ha): 9.0
Preemergence herbicidal rating SETVI (SETVI (Setaria viridis) [12]; Rate 0.0620 kg/ha): 9.0
Preemergence herbicidal rating SETVI (SETVI (Setaria viridis) [12]; Rate 0.1250 kg/ha): 9.0
Preemergence herbicidal rating SETVI (SETVI (Setaria viridis) [12]; Rate 0.2500 kg/ha): 9.0
Preemergence herbicidal rating ORYSAT (ORYSAT (Rice, Tebonnet) [13]; Rate 0.0620 kg/ha): 7.0
Preemergence herbicidal rating ORYSAT (ORYSAT (Rice, Tebonnet) [13]; Rate 0.1250 kg/ha): 7.0
Preemergence herbicidal rating ORYSAT (ORYSAT (Rice, Tebonnet) [13]; Rate 0.2500 kg/ha): 9.0
Preemergence herbicidal rating TRZAWR ([14]; Rate 0.0620 kg/ha): 5.0
Preemergence herbicidal rating TRZAWR ([14]; Rate 0.1250 kg/ha): 7.0
Preemergence herbicidal rating TRZAWR ([14]; Rate 0.2500 kg/ha): 9.0
herbicidal rating, ECHORC ([15]; rate 0.0080 kg/ha): 0.0
herbicidal rating, ECHORC ([15]; rate 0.0320 kg/ha): 0.0
herbicidal rating, ECHORC ([15]; rate 0.1250 kg/ha): 7.0
herbicidal rating, MOOVA ([16]; rate 0.0080 kg/ha): 0.0
herbicidal rating, MOOVA ([16]; rate 0.0320 kg/ha): 0.0
herbicidal rating, MOOVA ([16]; rate 0.1250 kg/ha): 3.0
